Structures are written as SMILES. Some results are limits rather than exact numbers.

This test deals with SMYD2 (Homo sapiens (Human), UniProt Q9NRG4). The experiment in a line: SMYD2 TR-FRET inhibition assay (p53 peptide + SAM, SAH detection). It is filed as biochemical. The following applies: SMYD2 enzyme, p53 peptide and SAM substrates, overnight at room temperature; Tb chelate mAb/OG-SAH probe detection; read-out: TRFRET IC50. Here is the method: 5 microliters of a 2×SMYD2 enzyme solution (20 nM, […] in assay buffer) were added to each well. To the control wells was also added 5 microliters of assay buffer. […] The wells were incubated at room temperature for 30 minutes.
Into the wells of the counter screen plate was added 5 microliters 2×SAH (300 nM, S-adenosyl homocysteine (SAH)), except the control wells.
Into all wells was added 5 microliters of 2×SAM. The plates were covered and incubated overnight at room temperature. […] Analysis of the wells was by the Laser Lentha Low Volume Envision Protocol (emission wavelength of 520 nm; laser excitation wavelength of 337 nm).

Chain of SMYD2 (Q9NRG4 whole entry): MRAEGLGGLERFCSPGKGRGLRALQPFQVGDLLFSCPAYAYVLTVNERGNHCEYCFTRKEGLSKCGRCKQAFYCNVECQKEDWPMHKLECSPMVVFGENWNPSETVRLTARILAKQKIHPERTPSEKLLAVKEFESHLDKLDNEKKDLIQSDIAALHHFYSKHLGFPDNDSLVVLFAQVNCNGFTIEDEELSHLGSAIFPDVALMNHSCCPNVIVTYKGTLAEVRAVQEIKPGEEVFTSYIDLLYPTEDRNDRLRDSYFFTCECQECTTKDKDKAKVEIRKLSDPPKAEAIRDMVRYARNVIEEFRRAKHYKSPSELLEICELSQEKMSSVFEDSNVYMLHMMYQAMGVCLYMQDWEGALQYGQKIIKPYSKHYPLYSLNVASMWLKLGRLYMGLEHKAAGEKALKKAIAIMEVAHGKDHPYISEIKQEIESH

By IC50 is commonly meant the midpoint of a concentration-inhibition curve. On to `O=C1COc2c(CCNCCN(C(=O)CCNCCc3ccccc3)C3CCCC3)ccc(O)c2N1` [Example 3, N-cyclopentyl-N-(2-((2-(5-hydroxy-3-oxo-3,4-dihydro-2H-benzo[b][1,4]oxazin-8-yl)ethyl)amino)ethyl)-3-(phenethylamino)-propanamide], for which the IC50 is 3.74 µM.
With `O=C1COc2c(CCNCCN(C(=O)CCNCCc3ccccc3)C3CCC3)ccc(O)c2N1` [Example 14, N-cyclobutyl-N-(2-((2-(5-hydroxy-3-oxo-3,4-dihydro-2H-benzo[b][1,4]oxazin-8-yl)ethyl)amino)ethyl)-3-(phenethylamino)-propanamide] the figure was greater than 50 µM; with `CC(NCCc1ccc(Cl)c(Cl)c1)C(=O)N(CCNCc1ccc(C#N)cc1)C1CCCCC1` (stereo not drawn) [Example 7, N-(2-((4-cyanobenzyl)amino)ethyl)-N-cyclohexyl-((3,4-dichlorophenethyl)amino)propanamide], 16 µM.
With `O=C1COc2c(CCNCCN(C(=O)CCNCc3ccc(Cl)c(Cl)c3)C3CCCCC3)ccc(O)c2N1` [Example 2], the IC50 was 2.03 µM.
As for `Cc1cn2ccccc2c1CCNCCN(C(=O)CCNCCc1cccc(Cl)c1Cl)C1CCCCC1` [Example 16, N-cyclohexyl-3-((2,3-dichlorophenethyl)amino)-N-(2-((2-(2-methylindolizin-1-yl)ethyl)amino)ethyl)propanamide], the IC50 came out at 3.44 µM.
The value for `O=C(CCNCCc1ccc(Cl)c(Cl)c1)N(CCN1CCN(c2cccc3c2CCN3)CC1)C1CCCCC1` [Example 12, N-cyclohexyl-3-((3,4-dichlorophenethyl)amino)-N-(2-(4-(indolin-4-yl)piperazin-1-yl)ethyl)propanamide] was 9.83 µM; that for `O=C1COc2c(cccc2[C@@H](O)CNCCN(C(=O)CCNCCc2ccc(Cl)c(Cl)c2)C2CCCCC2)N1` [Example 1b, (R)-N-cyclohexyl-3-((3,4-dichlorophenethyl)amino)-N-(2-((2-hydroxy-2-(3-oxo-3,4-dihydro-2H-benzo[b][1,4]oxazin-8-yl)ethyl)amino)-ethyl)-propanamide] was 0.138 µM; that for `O=C1COc2c(cccc2[C@H](O)CNCCN(C(=O)CCNCCc2ccc(Cl)c(Cl)c2)C2CCCCC2)N1` [Example 1a, (S)-N-cyclohexyl-3-((3,4-dichlorophenethyl)amino)-N-(2-((2-hydroxy-2-(3-oxo-3,4-dihydro-2H-benzo[b][1,4]oxazin-8-yl)ethyl)amino)-ethyl)-propanamide] was 0.023 µM.
As to `O=C(CCNCCc1ccc(Cl)c(Cl)c1)N(CCNCCN1CCCC1)C1CCCCC1` [Example 6, N-cyclohexyl-3-((3,4-dichlorophenethyl)amino)-N-(2-((2-(pyrrolidin-1-yl)ethyl)amino)ethyl)propanamide], the IC50 was 12.1 µM.
The value for `CC1CNc2c(CC(C)(C)C)c(NCCN(C(=O)CCNCCc3ccc(Cl)c(Cl)c3)C3CCCCC3)nn2C1` (stereo not drawn) [Example 8, N-cyclohexyl-3-((3,4-dichlorophenethyl)amino)-N-(2-((6-methyl-3-neopentyl-4,5,6,7-tetrahydropyrazolo[1,5-a]pyrimidin-2-yl)-amino)ethyl)-propanamide] was 32.8 µM; that for `O=C(CCNCCc1ccc(Cl)c(Cl)c1)N(CCNCCCN1CCCC1)C1CCCCC1` [Example 13, N-cyclohexyl-3-((3,4-dichlorophenethyl)amino)-N-(2-((3-(pyrrolidin-1-yl)propyl)amino)ethyl)propanamide] was 7.42 µM; that for `O=C1COc2c(CCNCCN(C(=O)CCNCCc3ccccc3)C3CCCCC3)ccc(O)c2N1` [Example 11, N-cyclohexyl-N-(2-((2-(5-hydroxy-3-oxo-3,4-dihydro-2H-benzo[b][1,4]oxazin-8-yl)ethyl)amino)ethyl)-3-(phenethylamino)-propanamide] was greater than 50 µM.
The value for `O=C1COc2c(CCNCCN(C(=O)CCNCCc3ccc(Cl)c(Cl)c3)C3CCC3)ccc(O)c2N1` [Example 15, N-cyclobutyl-3-((3,4-dichlorophenethyl)amino)-N-(2-((2-(5-hydroxy-3-oxo-3,4-dihydro-2H-benzo[b][1,4]oxazin-8-yl)ethyl)amino)-ethyl)-propanamide] was 3.79 µM.
The value for `O=C(CCNCCc1ccc(Cl)c(Cl)c1)N(CCNCCCN1CCCCC1)C1CCCCC1` [Example 5, N-cyclohexyl-3-((3,4-dichlorophenethyl)amino)-N-(2-((3-(piperidin-1-yl)propyl)amino)ethyl)propanamide] was 11.2 µM; that for `O=C1COc2c(CCNCCN(C(=O)CCNCCc3ccc(Cl)c(Cl)c3)C3CCCC3)ccc(O)c2N1` [Example 4, N-cyclopentyl-3-((3,4-dichlorophenethyl)amino)-N-(2-((2-(5-hydroxy-3-oxo-3,4-dihydro-2H-benzo[b][1,4]oxazin-8-yl)ethyl)amino)-ethyl)-propanamide] was 10 µM; that for `O=C(CCNCCc1ccccc1)N(CCN1CC[C@H]1COc1cccnc1)C1CCCCC1` [Example 9, (S)-N-cyclohexyl-3-(phenethylamino)-N-(2-(2-((pyridin-3-yloxy)methyl)azetidin-1-yl)ethyl)propanamide] was greater than 50 µM.
As for `COCCC(=O)N(CCNCCc1ccc(O)c2c1OCC(=O)N2)C1CCCCC1` [Example 10, N-cyclohexyl-N-(2-((2-(5-hydroxy-3-oxo-3,4-dihydro-2H-benzo[b][1,4]oxazin-8-yl)ethyl)amino)ethyl)-3-methoxypropanamide], the IC50 is greater than 50 µM.
The value for `O=C1COc2c(cccc2C(O)CNCCN(C(=O)CCNCCc2ccc(Cl)c(Cl)c2)C2CCCCC2)N1` (racemic) [Example 1, N-cyclohexyl-3-((3,4-dichlorophenethyl)amino)-N-(2-((2-hydroxy-2-(3-oxo-3,4-dihydro-2H-benzo[b][1,4]oxazin-8-yl)ethyl)amino)ethyl)-propanamide] was 0.065 µM.

The values are drawn from patent publication US9598381B2, “SMYD2 inhibitors” (AbbVie Inc., priority 2014, dated 2017).
